Measured values published in PubChem BioAssay AID1398 (The Scripps Research Institute Molecular Screening Center, 2008).
Calls of active or inactive are those of the source. The rule behind the calls is not given here.

Molecular target: Signal transducer and activator of transcription 3 (Homo sapiens) (UniProt P40763)
Experiment: STAT3 activation reporter response, dose response, cell-based (AID 1398)

Structure (SMILES) | IC50
CN1C(=O)/C(=C\c2cc(Br)cs2)c2ccccc21 | 0.635 µM
COCCNC(=O)c1cc2c(-c3ccc(Cl)cc3)nn(C)c2s1 | > 55.7 µM (inactive)
O=C(Cc1cnc2ncnn2c1)N1CCc2c([nH]c3ccccc23)C1c1ccccc1F (stereo not given) | inactive
COc1ccccc1C(=O)NNC(=S)Nc1ccccc1 | > 0.229 µM (inactive)
CC(OC(=O)c1cccnc1SCc1cc(=O)n2ccccc2n1)c1ccccn1 (stereo not given) | > 6.19 µM (inactive)
Cc1nc2ccccc2cc1O | 3.4 µM
COc1ccc(Cl)cc1-c1nc(-c2ccc(Br)o2)no1 | 8.51 µM
CC(=O)NCCC(=O)N1CCc2c([nH]c3ccccc23)C1c1cccc(C)c1 (stereo not given) | 2.5 µM
Cc1nc2c(n1C1CCCCC1)C(=O)c1ccccc1C2=O | 5.8 µM
Cc1cc(-c2ccc(Cl)cc2)c(C#N)c(N)n1 | 5.9 µM
CC1=C(C)C(=O)C(N2CCOCC2)=CC1=O | inactive
CCOc1ccc(CN2CCN(Cc3cc4ccccc4[nH]3)CC2CCO)cc1 (stereo not given) | 0.644 µM
CCOC(=O)CC1C(=O)NCCN1C(=O)c1cc2c(=O)n3cccc(C)c3nc2s1 (stereo not given) | > 55.7 µM (inactive)
CCN1CCN(C(=O)c2cc3c(-c4ccc(Cl)cc4)nn(C)c3s2)CC1 | > 55.7 µM (inactive)
CN(Cc1ccccc1)Cc1c[nH]c2ccccc12 | > 55.7 µM (inactive)
CN1CCN(C(=O)CNc2ccc(C(F)(F)F)cc2[N+](=O)[O-])CC1 | 3.56 µM
CCC(CC)NC(=O)Cc1ccccc1[N+](=O)[O-] | > 55.7 µM (inactive)
Cc1c(C(=O)NCc2cccnc2)oc2ccc(S(=O)(=O)N3CC(C)CC(C)C3)cc12 (stereo not given) | > 55.7 µM (inactive)
CN1N=C(C(=O)N2CCc3c([nH]c4ccccc34)C2c2c(F)cccc2Cl)CCC1=O (stereo not given) | 4.82 µM
CCOC(=O)c1sc(NCc2ccco2)c(-c2nc3ccccc3s2)c1N | 9.76 µM
Cc1c(C#N)c2ccccc2n1CC(=O)O | 5.09 µM
O=C(CN1CCNCC1)Nc1ccc(Oc2ccccc2)cc1 | > 55.7 µM (inactive)
COc1ccc(C2c3[nH]c4ccccc4c3CCN2C(=O)c2cc3ncccn3n2)c(F)c1 (stereo not given) | 5.23 µM
COCCCNc1nc2c(-c3cccc(C(F)(F)F)c3)nnn2c2ccccc12 | > 55.7 µM (inactive)
COC(=O)NNC(=O)c1ccccc1OC | 6.03 µM
O=C(CCCSc1nc2ccccc2s1)NCc1ccco1 | inactive
CCOc1cc(-c2ccc(N)c(OCC)c2)ccc1N | > 55.7 µM (inactive)

Structure (SMILES) | IC50
Cc1nc(/N=C(\N)Nc2ccccc2)nc2ccccc12 | 2.11 µM
CCn1c(C(=O)Nc2ccsc2C(=O)OC)cc2sc(Cl)cc21 | > 55.7 µM (inactive)
CCC(C(=O)Nc1ccccc1OC)n1c(C(=O)OC)cc2ccsc21 (stereo not given) | 2.02 µM
Nc1ccccc1Sc1nc2ccccc2[nH]1 | inactive
COc1cc(NC(=O)c2cc(-c3ccco3)on2)c(OC)cc1Cl | 1.71 µM
O=C(Nc1nnc(-c2ccccc2Cl)o1)c1nc2ccccc2s1 | > 55.7 µM (inactive)
COc1ccc(NC(=O)N2CCn3c2nc2ccccc23)cc1 | > 55.7 µM (inactive)
CN1C(=O)c2ccccc2C(C(=O)NCCCN2CCCC2=O)C1c1c[nH]c2ccccc12 (stereo not given) | > 55.7 µM (inactive)
Cn1nc(-c2ccc(Cl)cc2)c2cc(C(=O)NCCCN3CCOCC3)sc21 | inactive
COc1ccc(Br)cc1C(=O)Nc1cccc(C)c1 | inactive
O=C(CCc1nnc(Cc2ccc3c(c2)OCO3)o1)NCc1nc2ccccc2s1 | 2.85 µM
COC(=O)c1sccc1NC(=O)c1ccc(Br)s1 | > 18.6 µM (inactive)
O=C(c1cccnc1)N1CCc2ccccc21 | 8.13 µM
O=C(COc1ccccc1Cl)Nc1cc(Cl)ccc1O | 0.571 µM
Cc1noc(/C=C/N(C)C)c1S(=O)(=O)N1CCc2ccccc21 | inactive
NNc1ncnc2sc3c(c12)CCC3 | > 55.7 µM (inactive)
CC(C)CC(=O)NC(=S)Nc1nc(-c2ccccc2)cs1 | 0.468 µM
CCOc1ccccc1CN1CCN(Cc2cc3ccccc3[nH]2)CC1CCO (stereo not given) | > 55.7 µM (inactive)
O=C(Cc1cccs1)Nc1ccccn1 | 8.06 µM
Cc1cccc2c1NC(=O)/C2=C\C(=O)c1cccs1 | > 18.6 µM (inactive)
COc1ccc(-c2nc3scc(-c4ccccc4)n3n2)cc1 | 5.79 µM
Cc1nnc(NC(=O)c2oc3c(ccc4ccccc43)c2C)s1 | > 0.619 µM (inactive)
O=C(C1CCCN(S(=O)(=O)c2cccc3cccnc23)C1)N1CCc2ccccc21 (stereo not given) | > 55.7 µM (inactive)
CCOc1ccccc1C1CC(c2cccs2)=NN1S(C)(=O)=O (stereo not given) | > 55.7 µM (inactive)
Cn1nc(-c2ccc(Cl)cc2)c2cc(C(=O)NCCN3CCOCC3)sc21 | 6.88 µM
COc1ccc(-c2nnc(Nc3nc4c(OC)cccc4s3)o2)cc1 | > 55.7 µM (inactive)
COc1cccc2sc(Nc3nnc(-c4ccc(F)cc4)o3)nc12 | > 0.688 µM (inactive)

Structure (SMILES) | IC50
COCCSc1ccccc1C(=O)NCCc1ccccc1 | > 55.7 µM (inactive)
CCCc1nnc(N2C(=O)c3cccc4cccc(c34)C2=O)s1 | > 55.7 µM (inactive)
CC(=O)N1N=C(c2ccccc2O)OC1(C)CC(=O)Nc1ccccc1 (stereo not given) | > 55.7 µM (inactive)
c1ccc2c(c1)CCCN2c1nc2ccccc2n2cnnc12 | 1.36 µM
COc1cccc(-c2nc(N3CCCCC3C)c3ccccc3n2)c1O (stereo not given) | > 55.7 µM (inactive)
O=C(O)C1CC=CCC1C(=O)Nc1ccc(S(=O)(=O)N2CCCc3ccccc32)cc1 (stereo not given) | 5.67 µM
COC(=O)c1n[nH]c2ccccc12 | 3.33 µM
Nc1nnc(Cc2c[nH]c3ccccc23)s1 | > 55.7 µM (inactive)
CN(C)C(=O)COC(=O)/C=C/c1ccccc1[N+](=O)[O-] | 7.75 µM
CCCNC(=O)Cn1c2ccccc2c2nc(=O)cc(C)n21 | 3.33 µM
O=C(CCN1CCOCC1)N1CCc2c([nH]c3ccccc23)C1c1cccc(Cl)c1 (stereo not given) | 7.41 µM
COc1ccc(Cl)cc1NC(=O)Nc1ccc(Br)cn1 | > 55.7 µM (inactive)
CC1=NN(c2ccccc2)C(=O)/C1=C/c1c(O)[nH]c(=O)[nH]c1=O | > 55.7 µM (inactive)
O=C(Cc1c[nH]c2ccccc12)Nc1nnc(C2CC2)s1 | 2.98 µM
c1ccc2c(CNC3CCCCCC3)c[nH]c2c1 | > 55.7 µM (inactive)
CCc1cc2c(NCCC(=O)O)nc(C)nc2s1 | > 55.7 µM (inactive)
COc1ccccc1-c1nnc(SCC(=O)NC2CCCCC2)o1 | 1.87 µM
Cc1nn(-c2ccc(Cl)cc2)c(N)c1C(O)(CSc1nccn1C)C(F)(F)F (stereo not given) | > 55.7 µM (inactive)
Cc1cc(C)n(-c2nnc3n2N=C(c2c[nH]c4ccccc24)CS3)n1 | inactive
CCOC(=O)C1(CC2CCCCO2)CCN(Cc2cc3ccccc3[nH]2)CC1 (stereo not given) | > 55.7 µM (inactive)
COCc1cc(=O)n2c(-c3ccccc3OC)n[nH]c2n1 | 0.821 µM
CCCN(CCC)C(=O)Cn1c2ccccc2c2nc(=O)cc(C)n21 | 0.174 µM
CN(C)C(CN1C(=O)C2CC=CCC2C1=O)c1cn(C)c2ccccc12 (stereo not given) | > 55.7 µM (inactive)
NC(=O)CSc1c[nH]c2ccccc12 | inactive
Cc1ccc(CC(=O)Nc2nc3c(s2)CCCC3)cc1 | > 55.7 µM (inactive)
COCc1cc(C)nc2sc(C(=O)NN)c(-n3cccc3)c12 | inactive
CCN(CC)S(=O)(=O)c1ccc(-c2nnc3sc4cccc(C)c4n23)cc1 | > 55.7 µM (inactive)

Structure (SMILES) | IC50
O=C(Nc1ccccc1O)c1csc2c1CCCC2 | 2.44 µM
Cn1nc(-c2ccc(Cl)cc2)c2cc(C(=O)NCC3CCCO3)sc21 (stereo not given) | > 6.19 µM (inactive)
COCCCNC(=O)c1cc2c(-c3ccc(Cl)cc3)nn(C)c2s1 | > 55.7 µM (inactive)
COc1ccc(Cl)cc1NC(=O)c1oc(C)nc1C | > 55.7 µM (inactive)
O=C(c1cc[n+]([O-])cc1)N1CCc2c([nH]c3ccccc23)C1c1ccccc1Cl (stereo not given) | 8.29 µM
CC(=O)n1cc(Nc2ccc([N+](=O)[O-])cc2)c2ccccc21 | > 55.7 µM (inactive)
CC(C)CC1c2[nH]c3ccccc3c2CCN1C(=O)CCC(=O)N(C)C (stereo not given) | > 6.19 µM (inactive)
COc1ccc(C)cc1NC(=O)c1[nH]c(C)c(C(C)=O)c1C | inactive
O=C(Cc1c[nH]c2ccccc12)Nc1nc2ccccc2[nH]1 | 4.98 µM
CCOc1ccccc1-c1n[nH]c(=S)o1 | 0.521 µM
O=c1c2ccccc2ncn1Cc1ccco1 | 5.66 µM
Cc1ccccc1C1c2[nH]c3ccccc3c2CCN1C(=O)c1ccc(=O)n(C)n1 (stereo not given) | 4.19 µM
CCC(=O)NCCSc1c[nH]c2ccccc12 | inactive
COc1ccccc1C(=O)NNC(=O)c1ccc(NC(=O)C(C)C)cc1 | 1.3 µM
N#Cc1cn(CC(=O)O)c2ccccc12 | 9.78 µM
CN1CCN(CCCNC(=O)c2cc3c(-c4ccc(Cl)cc4)nn(C)c3s2)CC1 | 3.78 µM
COc1ccc(CN2CCN(S(=O)(=O)c3ccc(C)cc3)CC2)cc1Br | 6.13 µM
CC1CCN(C(=O)Cn2c(=O)n(CCc3ccccc3)c(=O)c3ccccc32)CC1 | > 55.7 µM (inactive)
O=C(O)C(Cc1c[nH]c2ccccc12)N1Cc2ccccc2C1=O (stereo not given) | inactive
CC(=O)NCCC(=O)N1CCc2c([nH]c3ccccc23)C1c1cccc(Cl)c1 (stereo not given) | > 55.7 µM (inactive)
COCCNC(=O)C(=O)NNC(=O)c1ccccc1OC | inactive
CC1Cc2ccccc2N1Cc1cc(=O)n2ccsc2n1 (stereo not given) | inactive
COc1ccc(C2c3[nH]c4ccccc4c3CCN2C(=O)c2ccc(=O)n(C)n2)c(F)c1 (stereo not given) | 2.44 µM
COc1ccc(S(=O)(=O)Nc2nc3ccccc3s2)cc1OC | inactive
